{"source": "ChEMBL document CHEMBL1152201", "about": "“Synthesis of 3,6-bicyclolides: a novel class of macrolide antibiotics” (2008)", "type_in_all_cases": "functional", "key": {"Haemophilus influenzae [1]": {"system": "Haemophilus influenzae", "assay": "Antibacterial activity against ampicillin-resistant Haemophilus influenzae 33929 by broth-microdilution method"}, "Streptococcus pyogenes [2]": {"system": "Streptococcus pyogenes", "assay": "Antibacterial activity against erythromycin-resistant Streptococcus pyogenes 1323 expressing mef gene by broth-microdilution method"}, "Staphylococcus aureus [3]": {"system": "Staphylococcus aureus", "assay": "Antibacterial activity against methicillin-resistant Staphylococcus aureus 33591 by broth-microdilution method"}, "Streptococcus pyogenes [4]": {"system": "Streptococcus pyogenes", "assay": "Antibacterial activity against erythromycin-susceptible Streptococcus pyogenes 19615 by broth-microdilution method"}, "Staphylococcus aureus [5]": {"system": "Staphylococcus aureus", "assay": "Antibacterial activity against erythromycin-susceptible Staphylococcus aureus 29213 by broth-microdilution method", "conditions": "ATCC29213"}, "Streptococcus pneumoniae [6]": {"system": "Streptococcus pneumoniae", "assay": "Antibacterial activity against erythromycin-resistant Streptococcus pneumoniae 700906 expressing […] gene by broth-microdilution method"}, "Streptococcus pyogenes [7]": {"system": "Streptococcus pyogenes", "assay": "Antibacterial activity against erythromycin-resistant Streptococcus pyogenes 2912 expressing erm gene by broth-microdilution method"}, "Streptococcus pneumoniae [8]": {"system": "Streptococcus pneumoniae", "assay": "Antibacterial activity against erythromycin-resistant Streptococcus pneumoniae 7701 expressing mef gene by broth-microdilution method"}, "Haemophilus influenzae [9]": {"system": "Haemophilus influenzae", "assay": "Antibacterial activity against ampicillin-susceptible Haemophilus influenzae by broth-microdilution method"}, "Streptococcus pneumoniae [10]": {"system": "Streptococcus pneumoniae", "assay": "Antibacterial activity against erythromycin-susceptible Streptococcus pneumoniae 49619 by broth-microdilution method"}, "Staphylococcus aureus [11]": {"system": "Staphylococcus aureus", "assay": "Antibacterial activity against MLSB-resistant Staphylococcus aureus 27660 by broth-microdilution method"}, "Moraxella catarrhalis": {"system": "Moraxella catarrhalis", "assay": "Antibacterial activity against Moraxella catarrhalis by broth-microdilution method"}, "Staphylococcus aureus [12]": {"system": "Staphylococcus aureus", "assay": "Antibacterial activity against macrolide-resistant Staphylococcus aureus 7701 infected in mouse"}, "Staphylococcus aureus [13]": {"system": "Staphylococcus aureus", "assay": "Antibacterial activity against macrolide-susceptible Staphylococcus aureus Smith infected in mouse"}, "Staphylococcus aureus [14]": {"system": "Staphylococcus aureus", "assay": "Antibacterial activity against macrolide-susceptible Staphylococcus aureus Smith by broth-microdilution method"}}, "data": [{"smiles": "C=C1CO[C@H]2[C@H](C)[C@@H](O[C@@H]3O[C@H](C)C[C@H](N(C)C)[C@H]3O)[C@](C)(C[C@@H](C)[C@H](N)[C@H](C)[C@@H](O)[C@](C)(O)[C@@H](CC)OC(=O)[C@@H]2C)OC1", "values": [{"measurement": "MIC", "setting": "Haemophilus influenzae [1]", "value": 32, "unit": "µg/mL"}, {"measurement": "MIC", "setting": "Streptococcus pyogenes [2]", "value": 0.25, "unit": "µg/mL"}, {"measurement": "MIC", "setting": "Staphylococcus aureus [3]", "value": "> 64", "unit": "µg/mL"}, {"measurement": "MIC", "setting": "Streptococcus pyogenes [4]", "value": "≤ 0.06", "unit": "µg/mL"}, {"measurement": "MIC", "setting": "Staphylococcus aureus [5]", "value": 4, "unit": "µg/mL"}, {"measurement": "MIC", "setting": "Streptococcus pneumoniae [6]", "value": "> 64", "unit": "µg/mL"}, {"measurement": "MIC", "setting": "Streptococcus pyogenes [7]", "value": 64, "unit": "µg/mL"}, {"measurement": "MIC", "setting": "Streptococcus pneumoniae [8]", "value": 0.125, "unit": "µg/mL"}, {"measurement": "MIC", "setting": "Haemophilus influenzae [9]", "value": 32, "unit": "µg/mL"}, {"measurement": "MIC", "setting": "Streptococcus pneumoniae [10]", "value": "≤ 0.06", "unit": "µg/mL"}, {"measurement": "MIC", "setting": "Staphylococcus aureus [11]", "value": 4, "unit": "µg/mL"}, {"measurement": "MIC", "setting": "Moraxella catarrhalis", "value": 0.5, "unit": "µg/mL"}]}, {"smiles": "C=C1CO[C@H]2[C@H](C)[C@@H](O[C@@H]3O[C@H](C)C[C@H](N(C)C)[C@H]3O)[C@](C)(C[C@@H](C)C(=N)[C@H](C)[C@@H](O)[C@](C)(O)[C@@H](CC)OC(=O)[C@@H]2C)OC1", "values": [{"measurement": "MIC", "setting": "Haemophilus influenzae [1]", "value": 64, "unit": "µg/mL"}, {"measurement": "MIC", "setting": "Streptococcus pyogenes [2]", "value": 0.5, "unit": "µg/mL"}, {"measurement": "MIC", "setting": "Staphylococcus aureus [3]", "value": "> 64", "unit": "µg/mL"}, {"measurement": "MIC", "setting": "Streptococcus pyogenes [4]", "value": 0.125, "unit": "µg/mL"}, {"measurement": "MIC", "setting": "Staphylococcus aureus [5]", "value": 2, "unit": "µg/mL"}, {"measurement": "MIC", "setting": "Streptococcus pneumoniae [6]", "value": "> 64", "unit": "µg/mL"}, {"measurement": "MIC", "setting": "Streptococcus pyogenes [7]", "value": 64, "unit": "µg/mL"}, {"measurement": "MIC", "setting": "Streptococcus pneumoniae [8]", "value": 0.25, "unit": "µg/mL"}, {"measurement": "MIC", "setting": "Haemophilus influenzae [9]", "value": 16, "unit": "µg/mL"}, {"measurement": "MIC", "setting": "Streptococcus pneumoniae [10]", "value": 0.125, "unit": "µg/mL"}, {"measurement": "MIC", "setting": "Staphylococcus aureus [11]", "value": 2, "unit": "µg/mL"}, {"measurement": "MIC", "setting": "Moraxella catarrhalis", "value": 0.5, "unit": "µg/mL"}]}, {"smiles": "C=C1CO[C@H]2[C@H](C)[C@@H](O[C@@H]3O[C@H](C)C[C@H](N(C)C)[C@H]3O)[C@](C)(C[C@@H](C)C(=O)[C@H](C)[C@@H](O)[C@](C)(O)[C@@H](CC)OC(=O)[C@@H]2C)OC1", "values": [{"measurement": "MIC", "setting": "Haemophilus influenzae [1]", "value": 64, "unit": "µg/mL"}, {"measurement": "MIC", "setting": "Streptococcus pyogenes [2]", "value": 0.5, "unit": "µg/mL"}, {"measurement": "MIC", "setting": "Staphylococcus aureus [3]", "value": "> 64", "unit": "µg/mL"}, {"measurement": "MIC", "setting": "Streptococcus pyogenes [4]", "value": 0.25, "unit": "µg/mL"}, {"measurement": "MIC", "setting": "Staphylococcus aureus [5]", "value": 1, "unit": "µg/mL"}, {"measurement": "MIC", "setting": "Streptococcus pneumoniae [6]", "value": "> 64", "unit": "µg/mL"}, {"measurement": "MIC", "setting": "Streptococcus pyogenes [7]", "value": "> 64", "unit": "µg/mL"}, {"measurement": "MIC", "setting": "Streptococcus pneumoniae [8]", "value": 0.25, "unit": "µg/mL"}, {"measurement": "MIC", "setting": "Haemophilus influenzae [9]", "value": 64, "unit": "µg/mL"}, {"measurement": "MIC", "setting": "Streptococcus pneumoniae [10]", "value": 0.125, "unit": "µg/mL"}, {"measurement": "MIC", "setting": "Staphylococcus aureus [11]", "value": 1, "unit": "µg/mL"}, {"measurement": "MIC", "setting": "Moraxella catarrhalis", "value": 0.5, "unit": "µg/mL"}]}, {"smiles": "C=C1CO[C@H]2[C@H](C)[C@@H](O[C@@H]3O[C@H](C)C[C@H](N(C)C)[C@H]3O)[C@](C)(C[C@@H](C)C(=O)[C@H](C)[C@@H]3NC(=O)O[C@]3(C)[C@@H](CC)OC(=O)[C@@H]2C)OC1", "values": [{"measurement": "MIC", "setting": "Haemophilus influenzae [1]", "value": 4, "unit": "µg/mL"}, {"measurement": "MIC", "setting": "Streptococcus pyogenes [2]", "value": 0.125, "unit": "µg/mL"}, {"measurement": "ED50", "setting": "Staphylococcus aureus [12]", "value": 7, "unit": "mg/kg"}, {"measurement": "MIC", "setting": "Staphylococcus aureus [3]", "value": "> 64", "unit": "µg/mL"}, {"measurement": "MIC", "setting": "Streptococcus pyogenes [4]", "value": "≤ 0.06", "unit": "µg/mL"}, {"measurement": "MIC", "setting": "Staphylococcus aureus [5]", "value": 0.125, "unit": "µg/mL"}, {"measurement": "MIC", "setting": "Streptococcus pneumoniae [6]", "value": "> 64", "unit": "µg/mL"}, {"measurement": "MIC", "setting": "Streptococcus pyogenes [7]", "value": "> 64", "unit": "µg/mL"}, {"measurement": "ED50", "setting": "Staphylococcus aureus [13]", "value": 10, "unit": "mg/kg"}, {"measurement": "MIC", "setting": "Haemophilus influenzae [9]", "value": 2, "unit": "µg/mL"}, {"measurement": "MIC", "setting": "Staphylococcus aureus [14]", "value": 0.125, "unit": "µg/mL"}, {"measurement": "MIC", "setting": "Streptococcus pneumoniae [10]", "value": "≤ 0.06", "unit": "µg/mL"}, {"measurement": "MIC", "setting": "Staphylococcus aureus [11]", "value": 0.125, "unit": "µg/mL"}, {"measurement": "MIC", "setting": "Moraxella catarrhalis", "value": "≤ 0.06", "unit": "µg/mL"}]}, {"smiles": "C=C1CO[C@H]2[C@H](C)[C@@H](O[C@@H]3O[C@H](C)C[C@H](N(C)C)[C@H]3O)[C@](C)(C[C@@H](C)/C(=N\\O)[C@H](C)[C@@H](O)[C@](C)(O)[C@@H](CC)OC(=O)[C@@H]2C)OC1", "values": [{"measurement": "MIC", "setting": "Haemophilus influenzae [1]", "value": 32, "unit": "µg/mL"}, {"measurement": "MIC", "setting": "Streptococcus pyogenes [2]", "value": 0.25, "unit": "µg/mL"}, {"measurement": "MIC", "setting": "Staphylococcus aureus [3]", "value": "> 64", "unit": "µg/mL"}, {"measurement": "MIC", "setting": "Streptococcus pyogenes [4]", "value": 0.125, "unit": "µg/mL"}, {"measurement": "MIC", "setting": "Staphylococcus aureus [5]", "value": 1, "unit": "µg/mL"}, {"measurement": "MIC", "setting": "Streptococcus pneumoniae [6]", "value": "> 64", "unit": "µg/mL"}, {"measurement": "MIC", "setting": "Streptococcus pyogenes [7]", "value": "> 64", "unit": "µg/mL"}, {"measurement": "MIC", "setting": "Streptococcus pneumoniae [8]", "value": 0.25, "unit": "µg/mL"}, {"measurement": "MIC", "setting": "Haemophilus influenzae [9]", "value": 32, "unit": "µg/mL"}, {"measurement": "MIC", "setting": "Streptococcus pneumoniae [10]", "value": "≤ 0.06", "unit": "µg/mL"}, {"measurement": "MIC", "setting": "Staphylococcus aureus [11]", "value": 1, "unit": "µg/mL"}, {"measurement": "MIC", "setting": "Moraxella catarrhalis", "value": 0.25, "unit": "µg/mL"}]}, {"smiles": "CC[C@H]1OC(=O)[C@H](C)[C@@H](O[C@H]2C[C@@](C)(OC)[C@@H](O)[C@H](C)O2)[C@H](C)[C@@H](O[C@@H]2O[C@H](C)C[C@H](N(C)C)[C@H]2O)[C@](C)(O)C[C@@H](C)C(=O)[C@H](C)[C@@H](O)[C@]1(C)O", "note": "[ERYTHROMYCIN]", "values": [{"measurement": "MIC", "setting": "Haemophilus influenzae [1]", "value": 4, "unit": "µg/mL"}, {"measurement": "MIC", "setting": "Streptococcus pyogenes [2]", "value": 16, "unit": "µg/mL"}, {"measurement": "MIC", "setting": "Staphylococcus aureus [3]", "value": "> 64", "unit": "µg/mL"}, {"measurement": "MIC", "setting": "Streptococcus pyogenes [4]", "value": 0.015, "unit": "µg/mL"}, {"measurement": "MIC", "setting": "Staphylococcus aureus [5]", "value": 0.5, "unit": "µg/mL"}, {"measurement": "MIC", "setting": "Streptococcus pneumoniae [6]", "value": "> 64", "unit": "µg/mL"}, {"measurement": "MIC", "setting": "Streptococcus pyogenes [7]", "value": "> 64", "unit": "µg/mL"}, {"measurement": "MIC", "setting": "Streptococcus pneumoniae [8]", "value": 4, "unit": "µg/mL"}, {"measurement": "MIC", "setting": "Haemophilus influenzae [9]", "value": 4, "unit": "µg/mL"}, {"measurement": "MIC", "setting": "Streptococcus pneumoniae [10]", "value": "≤ 0.06", "unit": "µg/mL"}, {"measurement": "MIC", "setting": "Staphylococcus aureus [11]", "value": "> 64", "unit": "µg/mL"}, {"measurement": "MIC", "setting": "Moraxella catarrhalis", "value": 0.13, "unit": "µg/mL"}]}, {"smiles": "CC[C@H]1OC(=O)[C@H](C)C(=O)[C@H](C)[C@@H](O[C@@H]2O[C@H](C)C[C@H](N(C)C)[C@H]2O)[C@](C)(OC)C[C@@H](C)C(=O)[C@H](C)[C@H]2N(CCCCn3cnc(-c4cccnc4)c3)C(=O)O[C@]12C", "note": "[TELITHROMYCIN]", "values": [{"measurement": "ED50", "setting": "Staphylococcus aureus [12]", "value": 17.2, "unit": "mg/kg"}, {"measurement": "ED50", "setting": "Staphylococcus aureus [13]", "value": 17.2, "unit": "mg/kg"}, {"measurement": "MIC", "setting": "Staphylococcus aureus [14]", "value": 0.125, "unit": "µg/mL"}]}]}
